# Where two headings read alike, the source gives them in different places.
# How the values were obtained:
# U266B1 cells = assay: Inhibition of IgE antibody secretion in U266B1 cells (IgE ELISA); assay type: cell-based
# Protocol: The U266B1 cells used were purchased from the American Tissue Cell Culture (ATCC # TIB-196). Specifically, U266B1 cells were diluted in RPMI medium containing 15% fetal bovine serum (FBS) and antibiotics (100 U/mL of penicillin and 100 μg/mL of streptomycin) at a concentration of 2×10^5 cells/mL, and then the dilution was dispensed in a 24-well plate at a concentration of 400 μl/well and in a 96-well plate at a concentration of 100 μl/well, and incubated in a 5% CO2 incubator at 37° C. for 72 hours.
# The U266B1 cells were treated with 5 mg/mL of each of the Justicia procumbens L. extracts and fractions (prepared in Preparation Examples 1 and 2 and shown in Tables 1 to 5). The medium in the 24-well plate was used to measure IgE antibody secretion, and the 96-well plate was used to measure cytotoxicity.
# For measurement of IgE antibody secretion, the medium in the 24-well plate was collected and centrifuged at 125×g for 5 minutes to remove debris. 100 g of the medium was diluted 10-fold, and then the degree of IgE secretion was measured using IgE enzyme-linked immonosorbent assay (ELISA, Komabiotech Inc).
# MC/9 mouse mast cells = assay: Degranulation inhibition (β-hexosaminidase secretion) in MC/9 mast cells induced with PMA/A23187; assay type: cell-based
# Protocol: (§1) MC/9 mouse mast cells were purchased from the American Tissue Cell Culture (ATCC # CRL-8306), and RBL-2H3 rat basophilic cells were purchased from the Korean Cell Link Bank (KCLB #22256). MC/9 mast cells and RBL-2H3 basophils were diluted at concentrations of 2×10^6 cells/mL and 5×10^5 cells/mL, respectively, and 400 μl of each of the dilutions was dispensed into each well of 24-well plates. Each well was pretreated with 10 μg/mL or 20 μg/mL of each of the extracts and fractions (prepared in Preparation Examples 1 and 2 and shown in Tables 1 to 5 above) for 30 minutes, and then degranulation of the cells was induced with 200 nM PMA/10 mM A23187 for 1 hour. […] The absorbance at 405 nm was measured, and β-hexosaminidase secretion (%) was calculated using the following equation 2: β-hexosaminidase secretion (%)={absorbance of medium/(absorbance of cell lysate+absorbance of medium)}×100 Equation 2
# (§2) Based on β-hexosaminidase secretion (%) obtained using equation 2 above, the degranulation inhibitory ability of each of the Justicia procumbens L. extracts was calculated using the following equation 3 (β-heXo: β-hexosaminidase): Degranulation inhibitory ability (%)={(β-hexo secretion % of test group−β-hexo secretion % of normal group)/(β-hexo secretion % of control group−β-hexo secretion % of normal group)}×100 Equation 3
# [1] = tested on: RBL-2H3 rat basophilic cells; assay: Degranulation inhibition (β-hexosaminidase secretion) in RBL-2H3 basophils induced with PMA/A23187; assay type: cell-based
# Protocol: as §1, §2
# [2] = tested on: Balb/c mouse rhinitis models; assay: Inhibition of IgE secretion in Balb/c mouse rhinitis models (ovalbumin); assay type: in vivo; conditions: extract 200 mg/kg oral daily for 1 week, dexamethasone 3 mg/kg intraperitoneal
# Protocol: Specifically, 5-week-old Balb/c mice were purchased and acclimated for 1 week. On 0, 7 and 14 days of one week of acclimation, the mice were systematically sensitized by intraperitoneally injecting 0.1% ovalbumin (OVA: 1 mg/mL, Al(OH)3: 20 mg/ml) in an amount of 100 μl/mouse. […] As a positive control, 3 mg/kg of dexamethasone was intraperitoneally administered. After 1 hour, 0.4% ovalbumin solution was dropped into the nasal cavity. In the afternoon, 0.4% ovalbumin solution was dropped once more into the nasal cavity. […] The inhibition (%) of IgE secretion was calculated using the following equation 4: Inhibition (%) of secretion=100−{(concentration in test group−concentration in normal group)/(concentration in ovalbumin-induced group−concentration in normal group)}×100 Equation 4
# [3] = tested on: Balb/c mouse asthma models; assay: Inhibition of asthma in Balb/c mouse asthma models (ovalbumin): serum IgE, BALF IL-4, IL-5, inflammatory cells; assay type: in vivo; conditions: extracts 200 mg/kg oral daily for 10 days, dexamethasone 3 mg/kg intraperitoneal
# Protocol: 5-week-old Balb/c mice were purchased and acclimated for 1 week. On 0 and 14 days of 1 week of acclimation, the mice were systematically sensitized by intraperitoneally administering 0.1% ovalbumin (OVA: 1 mg/mL, Al(OH)3: 20 mg/mL) in an amount of 100 μl/mouse. […] As a positive control, 3 mg/kg of dexamethasone was administered intraperitoneally. After one hour, 0.2% ovalbumin solution was sprayed and inhaled into the mice for 1 hour by use of a nebulizer (PARI Boy SX, Germany GmbH). 5 hours after final sensitization (30 days), the mice were biopsied, and whole blood was sampled from the mice and centrifuged at 12000 rpm for 10 minutes to separate serum. In addition, the lung tissue was isolated from each mouse and flushed with 1 mL of phosphate buffered saline through tracheostomy to collect bronchoalveolar lavage fluid (BALF). The collected bronchoalveolar lavage fluid was centrifuged at 3000 rpm for 10 minutes, and the supernatant was used to measure physiologically active substances (IL-4, and IL-5), and the pellets were used to measure the number of inflammatory cells.
# The IgE concentration in the separated serum was measured using IgE enzyme-linked immonosorbent assay (ELISA, Komabiotech Inc.), and the physiologically active substances (interleukin-4 (IL-4) and interleukin-5 (IL-5)) in the isolated bronchoalveolar lavage fluid were measured using an enzyme-linked immonosorbent assay (ELISA, IL-4: Enzo # ADI-900-043, IL-5: R&D system # M5000) corresponding to each substance. The results of the measurement are shown in Table 14 below, and the ability of each extract to inhibit IgE secretion was calculated in the same manner as equation 4 shown in Example 3.
# In addition, the bronchoalveolar lavage fluid pellets were re-dissolved in 0.5 mL of phosphate buffered saline, and 0.1 mL of the solution was added to each well of a 96-well plate and centrifuged at 800 rpm for 5 minutes to attach the cells to the bottom (3 wells per sample). Then, each sample was stained with Diff Quik staining solution (Sysmex), and photographed with a microscope at 2-6 random sites. About 200 cells per sample were counted to calculate the percentage (%) of inflammatory cells of each group. The total number of inflammatory cells was measured with a microscope using a hematocytometer, and the number of basophils was calculated using the percentage (%) of each inflammatory cells, and is shown in FIG. 1. Statistical processing was performed using an SPSS program, and a Levene test was performed for a test for equal variance, and significance was tested by one-way analysis (ANOVA).
structure (smiles),measurement,setting,value
C[C@@H]1C[C@H]2[C@@H]3CCC4=CC(=O)C=C[C@]4(C)[C@@]3(F)[C@@H](O)C[C@]2(C)[C@@]1(O)C(=O)CO [Dexamethasone],inhibition at 5 µg/mL,"U266B1 cells; U266B1, 5 μg/mL, organic solvent extracts and fractions, Table 8, read-out: IgE secretion inhibition (%) (n = 3, Mean ± SE)",4 ± 3.4%
same,inhibition at 5 µg/mL,"U266B1 cells; U266B1, concentration of test group 5 μg/mL, Table 6, read-out: IgE secretion inhibition (%) (n = 4, Mean ± SE)",8 ± 15%
same,"Degranulation inhibition (%) (n = 3, Mean ± SE)","MC/9 mouse mast cells; MC/9, 10 μg/mL, Table 11",35 ± 0.2%
same,"Inhibition (%) of degranulation (n = 3, Mean ± SE)","MC/9 mouse mast cells; MC/9, 20 μg/mL, Table 9",64 ± 0.2%
same,inhibition at 10 µg/mL,"[1]; RBL-2H3, 10 μg/mL, Table 11, read-out: Degranulation inhibition (%) (n = 3, Mean ± SE)",14 ± 3%
same,inhibition at 20 µg/mL,"[1]; RBL-2H3, 20 μg/mL, Table 9, read-out: Inhibition (%) of degranulation (n = 3, Mean ± SE)",18 ± 1%
same,"Serum IgE concentration (ng/mL, Mean ± SE)",[2],32.2 ± 4.4 ng/mL
same,"Inhibition of IgE secretion (%, Mean ± SE)",[2]; equation 4,67.3 ± 6.3%
same,"Bronchoalveolar lavage fluid IL-4 (inhibition of IgE secretion, (%)), Mean ± SD",[3],(72.7 ± 3.8) %
same,"Bronchoalveolar lavage fluid IL-4 (pg/mL), Mean ± SD",[3],56.0 ± 2.1 # pg/mL
same,"Bronchoalveolar lavage fluid IL-5 (inhibition of IgE secretion, (%)), Mean ± SD",[3],(98.7 ± 9.2) %
same,"Bronchoalveolar lavage fluid IL-5 (pg/mL), Mean ± SD",[3],4.8 ± 3.2 # pg/mL
same,"Serum IgE concentration (ng/mL), Mean ± SD",[3],85.8 ± 4.9 # ng/mL
same,"Serum IgE (inhibition of IgE secretion, (%)), Mean ± SD",[3]; equation 4,(25.0 ± 5.8) %

# Reference: patent US10688143B2, “Composition containing extract or fraction of genus Justicia plant” (priority 2014, dated 2020)
